The test has as its target T1, MerTK (Homo sapiens, UniProt Q12866).
T1 construct: Seed HUVECs (10K cells/well) in EBM-2 complete media; host or cells: HUVEC (primary human umbilical vein endothelial cells)
T1 sequence (Q12866 21-999): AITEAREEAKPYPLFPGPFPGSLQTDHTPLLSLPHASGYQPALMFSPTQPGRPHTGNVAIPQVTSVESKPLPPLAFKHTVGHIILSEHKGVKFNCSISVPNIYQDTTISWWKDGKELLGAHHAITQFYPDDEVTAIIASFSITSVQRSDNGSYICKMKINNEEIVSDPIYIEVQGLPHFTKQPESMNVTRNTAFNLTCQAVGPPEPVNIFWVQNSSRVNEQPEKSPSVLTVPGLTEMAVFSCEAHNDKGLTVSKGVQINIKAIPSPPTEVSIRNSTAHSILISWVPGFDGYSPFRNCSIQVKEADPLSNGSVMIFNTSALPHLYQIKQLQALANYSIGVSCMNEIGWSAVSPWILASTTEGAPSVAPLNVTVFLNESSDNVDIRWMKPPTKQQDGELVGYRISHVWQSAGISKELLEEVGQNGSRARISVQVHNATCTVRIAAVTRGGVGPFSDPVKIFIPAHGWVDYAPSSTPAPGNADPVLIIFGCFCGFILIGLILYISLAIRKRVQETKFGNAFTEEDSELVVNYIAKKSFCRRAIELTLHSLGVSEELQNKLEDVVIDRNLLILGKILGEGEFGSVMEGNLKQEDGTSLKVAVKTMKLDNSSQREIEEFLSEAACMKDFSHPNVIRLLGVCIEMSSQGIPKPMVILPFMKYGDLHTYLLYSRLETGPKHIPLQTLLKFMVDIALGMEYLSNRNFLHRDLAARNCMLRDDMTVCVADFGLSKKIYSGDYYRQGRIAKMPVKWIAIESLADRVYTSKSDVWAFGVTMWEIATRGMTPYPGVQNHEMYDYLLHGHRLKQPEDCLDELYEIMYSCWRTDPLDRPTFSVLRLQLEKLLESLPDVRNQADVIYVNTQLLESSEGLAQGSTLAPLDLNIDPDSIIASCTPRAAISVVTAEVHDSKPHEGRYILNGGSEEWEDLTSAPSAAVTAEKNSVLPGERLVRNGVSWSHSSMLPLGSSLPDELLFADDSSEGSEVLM
Put plainly: PAKT HTRF-HUVEC assay (pAkt Ser473 HTRF after anti-human MerTK-XL stimulation). In kind it is cell-based. As to conditions: HUVEC cells, 1 hour compound, stimulated with anti-human MerTK-XL 1 ug/mL for 10 minutes, read-out: inhibition of MerTK. In a few lines: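 Akt Ser473 phosphorylation measured by HTRF in lysates of serum-starved HUVECs. Cells received compound for 1 h at 37° C before a 10-min challenge with antibody-cross-linked anti-MerTK (1 ug/mL final); EC50 derived by curve fit.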

Take `CN1CCN(Cc2ccc3c(c2)c(=O)n([C@H]2CC[C@H](O)CC2)c2nc(NCCC4CC4)ncc32)CC1` [Compound 26, trans-3-((2-Cyclopropylethyl)amino)-5-(4-hydroxycyclohexyl)-8-((4-methylpiperazin-1-yl)methyl)pyrimido[4,5-c]isoquinolin-6(5H)-one]: the EC50 came out at 16.7 nM.

Turning to `O=c1c2cc(CN3CCN(C4COC4)CC3)ccc2c2cnc(NCC3CC3)nc2n1[C@H]1CC[C@H](O)CC1` [Compound 147], the EC50 was 46.7 nM.

`O=c1c2cc(CN3CCN(c4ccncc4)CC3)ccc2c2cnc(NCC3CCC3)nc2n1[C@H]1CC[C@H](O)CC1` [Compound 220, trans-3-((Cyclobutylmethyl)amino)-5-(4-hydroxycyclohexyl)-8-((4-(pyridin-4-yl)piperazin-1-yl)methyl)pyrimido[4,5-c]isoquinolin-6(5H)-one]: the EC50 was 11.2 nM.

For `CC1(O)CCC(n2c(=O)c3cc(CN4CCC(N5CCCC5)CC4)ccc3c3cnc(NCC4CC4)nc32)CC1` (stereo not drawn) [Compound 150], the EC50 amounted to 33.3 nM.

`CCC1(CNc2ncc3c4ccc(N5CCN(C)CC5)cc4c(=O)n([C@H]4CC[C@H](O)CC4)c3n2)CCC1` [Compound 91, trans-3-(((1-Ethylcyclobutyl)methyl)amino)-5-(4-hydroxycyclohexyl)-8-(4-methylpiperazin-1-yl)pyrimido[4,5-c]isoquinolin-6(5H)-one]: the EC50 amounted to 3910 nM.

As for `CN1CC2(C1)CN(c1ccc3c(c1)c(=O)n([C@H]1CC[C@H](O)CC1)c1nc(NC4CC(F)C4)ncc31)C2` (stereo partly drawn) [Compound 74, trans-3-((3-Fluorocyclobutyl)amino)-5-(4-hydroxycyclohexyl)-8-(6-methyl-2,6-diazaspiro[3.3]heptan-2-yl)pyrimido[4,5-c]isoquinolin-6(5H)-one], the EC50 stood at 218 nM.

For the compound `CCCCNc1ncc2c3ccc(N4CCN(C(C)C)CC4)cc3c(=O)n([C@H]3CC[C@H](O)CC3)c2n1` [Compound 69, trans-3-(Butylamino)-5-(4-hydroxycyclohexyl)-8-(4-isopropylpiperazin-1-yl)pyrimido[4,5-c]isoquinolin-6(5H)-one], the EC50 was 20.4 nM.

In the case of `CCC(F)(F)CNc1ncc2c3ccc(CN4CCC5(CC4)COC5)cc3c(=O)n([C@H]3CC[C@H](O)CC3)c2n1` [Compound 197, trans-8-((2-Oxa-7-azaspiro[3.5]nonan-7-yl)methyl)-3-((2,2-difluorobutyl)amino)-5-(4-hydroxycyclohexyl)pyrimido[4,5-c]isoquinolin-6(5H)-one], the EC50 came to 97.7 nM.

Regarding `CCCCNc1ncc2c3ccc(CN4CCN(C)CC4)cc3c(=O)n([C@H]3CC[C@H](N)C3)c2n1` [Compound 232, 5-((1S,3S)-3-aminocyclopentyl)-3-(butylamino)-8-((4-methylpiperazin-1-yl)methyl)pyrimido[4,5-c]isoquinolin-6(5H)-one], the EC50 amounted to 43 nM.

Regarding `O=c1c2cc(CN3CCS(=O)(=O)CC3)ccc2c2cnc(NCC3CC3)nc2n1[C@H]1CC[C@H](O)CC1` [Compound 160], the EC50 was 221 nM.

In the case of `CN1CCN(c2ccc3c(c2)c(=O)n([C@H]2CC[C@H](O)CC2)c2nc(NCCCC(F)(F)F)ncc32)CC1` [Compound 95, trans-5-(4-Hydroxycyclohexyl)-8-(4-methylpiperazin-1-yl)-3-((4,4,4-trifluorobutyl)amino)pyrimido [4,5-c]isoquinolin-6(5H)-one], the EC50 amounted to 3920 nM.

On to `O=c1c2cc(CN3CCN(c4ccncc4)CC3)ccc2c2cnc(NCCC3CC3)nc2n1[C@H]1CC[C@H](O)CC1` [Compound 222, trans-3-((2-Cyclopropylethyl)amino)-5-(4-hydroxycyclohexyl)-8-((4-(pyridin-4-yl)piperazin-1-yl)methyl)pyrimido[4,5-c]isoquinolin-6(5H)-one], for which the EC50 came out at 14.5 nM.

Consider `C[C@@H]1CN(Cc2ccc3c(c2)c(=O)n([C@H]2CC[C@H](O)CC2)c2nc(NCC4CC4)ncc32)CCN1C` [Compound 175], for which the EC50 worked out at 36.4 nM.

In the case of `O=c1c2cc(N3CCN(CC(F)F)CC3)ccc2c2cnc(NCC3CC3)nc2n1[C@H]1CC[C@H](O)CC1` [Compound 169], the EC50 stood at 354 nM.

Turning to `O=c1c2ccccc2c2cnc(NCC3CCC3)nc2n1[C@H]1CC[C@H](O)CC1` [Compound 117, trans-3-((Cyclobutylmethyl)amino)-5-(4-hydroxycyclohexyl)pyrimido [4,5-c]isoquinolin-6(5H)-one], the EC50 was 326 nM.

Consider `O=c1c2cc(CN3CCN4CCC[C@@H]4C3)ccc2c2cnc(NCC3CC3)nc2n1[C@H]1CC[C@H](O)CC1` [Compound 159], for which the EC50 was determined as 48.7 nM.

Consider `O=c1c2cc(CN3CC[S+]([O-])CC3)ccc2c2cnc(NCC3CC3)nc2n1[C@H]1CC[C@H](O)CC1` [Compound 52, trans-3-((cyclopropylmethyl)amino)-5-(4-hydroxycyclohexyl)-8-((1-oxidothiomorpholino)methyl) pyrimido[4,5-c]isoquinolin-6(5H)-one], for which the EC50 was 401 nM.

On to `CC(C)N1CCN(Cc2ccc3c(c2)c(=O)n(C2CCC(C)(O)CC2)c2nc(NCCC4CC4)ncc32)CC1` (stereo not drawn) [Compound 32, trans-3-((2-Cyclopropylethyl)amino)-5-(4-hydroxy-4-methylcyclohexyl)-8-((4-isopropylpiperazin-1-yl)methyl)pyrimido[4,5-c]isoquinolin-6(5H)-one], for which the EC50 was 6.5 nM.

For the origin of these results see US11110082B2, “Tyrosine kinase inhibitors” (Rigel Pharmaceuticals, Inc., priority 2016, dated 2021).
